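Interpolation was linear, between the two tested concentrations surrounding the appropriate level; five concentrations were tested over 48 hours in 96-well plates. At the GI50, growth is halved. TGI: total growth inhibition.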

The record followed here is PubChem BioAssay (NCI).

Among the test systems are MOLT-4 leukemia; U251 CNS; SK-MEL-5 melanoma; NCI-H460 lung; SK-MEL-2 melanoma; HCC-2998 colon; HL-60(TB) leukemia; SW-620 colon.
Holding throughout (assay): NCI tumour cell line growth inhibition, 48 h

As to `O=C(c1ccccc1)C1OC12C(=O)Nc1c(Cl)cc(Cl)cc12` (stereo unspecified), the TGI is 31 µM in the test on MOLT-4 leukemia; over 100 µM in the test on U251 CNS; over 100 µM with SK-MEL-5 melanoma; over 100 µM with NCI-H460 lung; over 100 µM in the test on SK-MEL-2 melanoma; over 100 µM with HCC-2998 colon. In addition, the TGI was found to be 36 µM in the test on HL-60(TB) leukemia and 35.4 µM with SW-620 colon.

Regarding `O=c1ncc(F)cn1C1OC(CO)C(O)C1O` (stereo unspecified), the TGI was over 54.3 µM in the test with MOLT-4 leukemia; over 56.6 µM in the test with U251 CNS; over 73 µM in the test on NCI-H460 lung; over 46.5 µM in the test on SK-MEL-2 melanoma; over 51.4 µM in the test on HCC-2998 colon; over 52 µM with HL-60(TB) leukemia. Further, the TGI in the test on SW-620 colon is over 100 µM.

`CSc1nc(NC2OC(COC(C)=O)C(OC(C)=O)C(OC(C)=O)C2OC(C)=O)c2c(n1)OCC2=O` (stereo unspecified): the TGI with MOLT-4 leukemia, in the test on U251 CNS, in the test with SK-MEL-5 melanoma, with NCI-H460 lung, in the test on SK-MEL-2 melanoma and in the test on HL-60(TB) leukemia was over 100 µM throughout. In the test on SW-620 colon, this compound gave a TGI of over 100 µM.

In the case of `Oc1ccc2ccccc2c1N=Nc1ccsc1`, the TGI in the test with MOLT-4 leukemia, in the test on U251 CNS, in the test on SK-MEL-5 melanoma, with NCI-H460 lung, with SK-MEL-2 melanoma and in the test on HCC-2998 colon was over 100 µM in each case. The TGI in the test on HL-60(TB) leukemia and with SW-620 colon was over 100 µM throughout.

As for `CCC[CH2][Sn]1([CH2]CCC)[O]CC(CN(C)Cc2ccccc2)[O]1` (stereo unspecified), the GI50 is 3.64 µM in the test with MOLT-4 leukemia; 5.75 µM with U251 CNS; 11.9 µM in the test on SK-MEL-5 melanoma; 16.4 µM in the test on NCI-H460 lung; 4.27 µM in the test on SK-MEL-2 melanoma; 11 µM in the test on HCC-2998 colon. The GI50 was 0.473 µM in the test with HL-60(TB) leukemia and 2.77 µM in the test on SW-620 colon. Also, the TGI in the test on MOLT-4 leukemia was determined as 20.8 µM; in the test with U251 CNS it was 17.8 µM; with SK-MEL-5 melanoma, 24.3 µM; in the test on NCI-H460 lung, 30.3 µM; in the test on SK-MEL-2 melanoma, 15.9 µM; in the test on HCC-2998 colon it was 23.3 µM. Besides, the TGI came to 2.08 µM in the test with HL-60(TB) leukemia and 11.1 µM in the test with SW-620 colon.

For the compound `CC(=O)OC[C@@H](COC(=O)/C=C/c1ccc(O)cc1)OC1OC(CO)C(O)C(O)C1O` (stereo partly specified), the TGI in the test with MOLT-4 leukemia, in the test with U251 CNS, in the test on SK-MEL-5 melanoma, with NCI-H460 lung, in the test on SK-MEL-2 melanoma and with HCC-2998 colon was over 100 µM each time. For the same compound, the TGI in the test with HL-60(TB) leukemia and in the test with SW-620 colon was over 100 µM throughout.

For `O=c1c(Br)cc2nc3ccccc3sc-2c1Br`, the TGI in the test on MOLT-4 leukemia is over 65.8 µM; in the test on U251 CNS, over 100 µM; in the test on SK-MEL-5 melanoma, over 100 µM; with NCI-H460 lung it was over 100 µM; in the test with SK-MEL-2 melanoma, over 100 µM; in the test with HCC-2998 colon it was over 100 µM. The TGI with HL-60(TB) leukemia is 38.9 µM; in the test with SW-620 colon, over 100 µM.

As for `C/C(CC(=O)Nc1ccc(C)c(C)c1)=N\NC(N)=O`, the TGI with MOLT-4 leukemia, in the test on U251 CNS, in the test on SK-MEL-5 melanoma, in the test with NCI-H460 lung, with SK-MEL-2 melanoma and in the test with HCC-2998 colon was over 100 µM throughout. Also, the TGI in the test on HL-60(TB) leukemia and with SW-620 colon was over 100 µM each time.

Take `O=[P+](O)c1ccsc1`: the TGI in the test with MOLT-4 leukemia, in the test with U251 CNS, in the test with SK-MEL-5 melanoma, in the test with NCI-H460 lung, with HL-60(TB) leukemia and in the test with SW-620 colon was over 100 µM throughout.

Turning to `Cc1cccc(C)c1NC(=O)C1C(=O)N(c2c(C)cccc2C)C(=O)/C1=N\N` (stereo unspecified), the TGI with MOLT-4 leukemia, with U251 CNS, with SK-MEL-5 melanoma, in the test on SK-MEL-2 melanoma, in the test on HCC-2998 colon and with HL-60(TB) leukemia was over 100 µM in each case. The compound further returned a TGI with SW-620 colon of over 100 µM.

As to `C[C@]12CC/C(=N\O)C=C1CC[C@@H]1C2CC[C@@]2(C)C1CC[C@@H]2OC1CCCCO1` (stereo partly specified), the TGI with MOLT-4 leukemia was 29.9 µM; in the test on U251 CNS, 32.4 µM; in the test with SK-MEL-5 melanoma it was over 100 µM; with NCI-H460 lung it was 45.7 µM; in the test with SK-MEL-2 melanoma it was 30.4 µM; in the test on HCC-2998 colon, 29.5 µM. The same compound had a TGI with SW-620 colon of 32 µM.

With `CC1=C(O)C(=O)C2C(=O)C1C1Cc3ccccc3C21` (stereo unspecified), the TGI in the test with MOLT-4 leukemia, in the test on U251 CNS, in the test with SK-MEL-5 melanoma, with SK-MEL-2 melanoma, with HCC-2998 colon and with HL-60(TB) leukemia was over 100 µM each time. Further, in the test with SW-620 colon, the TGI was over 100 µM.

On to `O=C(CCN1CCN(c2ccccc2)CC1)N1CCc2c([nH]c3ccccc23)C1c1cccnc1` (stereo unspecified), for which the TGI in the test on MOLT-4 leukemia was 51.1 µM; with U251 CNS, 30 µM; in the test with SK-MEL-5 melanoma, 28.9 µM; in the test on NCI-H460 lung, 34.4 µM; in the test on SK-MEL-2 melanoma, 30.4 µM; in the test on HCC-2998 colon it was 36.1 µM. The TGI in the test with HL-60(TB) leukemia worked out at 33.6 µM; with SW-620 colon it was 32.7 µM.

Take `CC(C)([NH-])CO.CC(C)([NH-])CO.[Cl][Cd][Cl]`: the GI50 was 21.8 µM with MOLT-4 leukemia; 15.4 µM in the test on U251 CNS; 4.47 µM in the test with SK-MEL-5 melanoma; 11.3 µM in the test with NCI-H460 lung; 15.6 µM with SK-MEL-2 melanoma; 19.3 µM in the test on HCC-2998 colon. For the same compound, the GI50 is 26.9 µM in the test with HL-60(TB) leukemia and 18.6 µM with SW-620 colon. Moreover, the TGI was 47.3 µM in the test with MOLT-4 leukemia; 28.8 µM with U251 CNS; 24.6 µM in the test with NCI-H460 lung; 29.8 µM with SK-MEL-2 melanoma; 59.5 µM in the test with HCC-2998 colon; 55.8 µM in the test on HL-60(TB) leukemia. In the test with SW-620 colon, this compound displayed a TGI of 38.9 µM.

On to `NC(=O)/N=C1/CCC2C3CCCC2C13`, for which the TGI in the test with MOLT-4 leukemia, in the test on U251 CNS, with SK-MEL-5 melanoma, with NCI-H460 lung, with SK-MEL-2 melanoma and in the test on HCC-2998 colon was over 100 µM throughout. In addition, the TGI in the test with HL-60(TB) leukemia and with SW-620 colon was over 100 µM each time.

`COc1ccc(-c2cc(=O)c3cc(OC)ccc3[nH]2)cc1`: the TGI with MOLT-4 leukemia, in the test on SK-MEL-5 melanoma, with HCC-2998 colon, in the test with HL-60(TB) leukemia and in the test on SW-620 colon was over 100 µM in each case.

As to `CN1C(=O)C2C3C=C4c5ccccc5N(c5ccccc5)C4(C2C1=O)[C@H]1C(=O)N(C)C(=O)[C@@H]31` (stereo partly specified), the TGI in the test with MOLT-4 leukemia, with U251 CNS, in the test with NCI-H460 lung, in the test on SK-MEL-2 melanoma, in the test on HCC-2998 colon and with HL-60(TB) leukemia was over 100 µM each time. In the test with SW-620 colon, this compound registered a TGI of over 100 µM.

Consider `O=C(O)CCC(N=Cc1nc(-c2ccccc2)oc1O)C(=O)O` (stereo unspecified), for which the TGI in the test with MOLT-4 leukemia, in the test on U251 CNS, in the test with SK-MEL-5 melanoma, with NCI-H460 lung, in the test on SK-MEL-2 melanoma and in the test with HCC-2998 colon was over 100 µM in each case. In the test with SW-620 colon, this compound registered a TGI of over 100 µM.

`COc1ccc(/C(Cl)=C(\C=N/O)c2ccc(OC)c(OC)c2)cc1OC`: the TGI in the test with MOLT-4 leukemia, in the test on U251 CNS, with SK-MEL-5 melanoma, in the test on NCI-H460 lung, in the test on SK-MEL-2 melanoma and with HCC-2998 colon was over 100 µM each time. Besides, the TGI in the test with HL-60(TB) leukemia and in the test with SW-620 colon was over 100 µM in each case.

For `COC(=O)C(C(=O)C(=O)Nc1ccc([N+](=O)[O-])cc1[N+](=O)[O-])c1nc2ccc(Cl)cc2[nH]c1=O` (stereo unspecified), the TGI with MOLT-4 leukemia, in the test with SK-MEL-5 melanoma, in the test on NCI-H460 lung, with SK-MEL-2 melanoma, in the test on HCC-2998 colon and in the test on HL-60(TB) leukemia was over 100 µM in each case. Besides, in the test on SW-620 colon, the TGI was over 100 µM.

Regarding `Cc1cccc(C(C)(C)C)c1NC(=O)CC1C(=O)Nc2ccccc2S1(=O)=O` (stereo unspecified), the TGI amounted to 5.19 µM in the test with MOLT-4 leukemia; 20.2 µM with U251 CNS; 24.9 µM in the test on SK-MEL-5 melanoma; 24.1 µM with NCI-H460 lung; 21.2 µM in the test with SK-MEL-2 melanoma; 20.5 µM in the test on HCC-2998 colon. Further, the TGI in the test on HL-60(TB) leukemia was determined as 10.7 µM; in the test with SW-620 colon it was 22.1 µM.

Regarding `CC(Nc1ccc(S(=O)(=O)N=C(N)N)cc1)c1c2ccccc2nc2ccccc12` (stereo unspecified), the TGI in the test with MOLT-4 leukemia is 48.1 µM; in the test with U251 CNS, over 100 µM; in the test with NCI-H460 lung it was 83.8 µM; with SK-MEL-2 melanoma it was 61.9 µM; in the test with HCC-2998 colon it was 82.7 µM; in the test with HL-60(TB) leukemia, 39.2 µM. The TGI in the test with SW-620 colon is over 100 µM.

In the case of `Cn1cnc([N+](=O)[O-])c1Sc1nccn1-c1cccc2ccccc12`, the TGI with MOLT-4 leukemia was 43.7 µM; with U251 CNS, over 100 µM; in the test with SK-MEL-5 melanoma, over 100 µM; in the test with NCI-H460 lung it was 73.1 µM; with SK-MEL-2 melanoma, 37.5 µM; in the test with HCC-2998 colon it was over 100 µM. In the test with SW-620 colon, this compound displayed a TGI of over 100 µM.

As to `CC(=O)C1C(c2ccc(N(C)C)cc2)c2cc3c(cc2OC1(C)O)OCO3` (stereo unspecified), the TGI with MOLT-4 leukemia was over 100 µM; in the test with U251 CNS, over 100 µM; in the test on SK-MEL-5 melanoma, 93 µM; with NCI-H460 lung, over 100 µM; with SK-MEL-2 melanoma, over 100 µM; in the test with HL-60(TB) leukemia it was 58.2 µM. Also, the TGI in the test with SW-620 colon is over 100 µM.
